According to patent US20110003017A1, “Method for Preparation of Extract from Angelica Gigas Nakai and Composition Containing the Extract” (AZI Co., Ltd., priority 2007, published 2011):

Assay: antioxidant effects (electron donating ability) using DPPH
Format: biochemical
Details: DPPH radical scavenging, absorbance at 520 nm
Protocol: The antioxidant effects were determined using 1,1-diphenyl-2-picryl hydrazyl (DPPH). Analysis of the extract using DPPH is performed by the following method.
DPPH having radicals is mostly used for determining radical scavenging performance. DPPH was purchased from Sigma. The following procedures were carried out:
1) 2 ml of 0.1 mM […] (Sigma, D-9132) in ethanol was added to 2 ml of a sample dissolved in ethanol;
2) After mixing the solution for 10 minutes, the mixture was left in a dark place;
3) Absorbance of the resultant product at 520 nm was measured;
4) Calculation of antioxidant efficacy (electron donating ability),
EDA (electron donating ability)=(Cabs−Sabs)/Cabs*100
wherein • Cabs: absorbance of a negative control (which contains ethanol only instead of a sample), • Sabs: absorbance of a sample, and • Positive control: Vitamin E (Fluka, 95240) as a sample.
Antioxidant effects were compared between both extract powders obtained in Examples 1 and 2. Using DPPH analyzed and quantified EDA to determine the antioxidant effects of the extract powder. IC50 means a concentration required for scavenging 50% of radicals and it is determined that the antioxidant effects are enhanced as IC50 value is lowered.

Substance: Vitamin E
- IC50 (concentration required for scavenging 50% of radicals): 15 mg/L
